In publication PMC11378297, “Discovery and Profiling of New Multimodal Phenylglycinamide Derivatives as Potent Antiseizure and Antinociceptive Drug Candidates” (ACS Chemical Neuroscience, 2024):
Read-outs that look alike come from different tables or passages of the source.

Tests used:
[1] = target: T1, Voltage-Gated Sodium channel hNav1.7 (Homo sapiens, UniProt Q15858); assay: human sodium ion channel cell based automated patch clamp assay, hNav1.7
T1 construct: Eurofins Discovery (St. Charles, MO, USA)
From the text: Human sodium ion channels cell based automated patch clamp assays: sodium channels exist in, a) a resting or closed state at -120 mV, b) a transient open state that inactivates to c) inactivated state at -10 mV. Sodium current inhibition within 1-2 ms of channel opening at 0 mV is open channel inhibition (pulse 1). In order to completely inactivate the sodium channels and facilitate inactivated state-dependent binding of the drug, the channels were kept at open state ( -10 mV) longer (pulsed for 500 ms) and then stepped back to -120 mV for 10 ms to recover from inactivation into resting or closed
open) before stepping to -10 mV for 50 ms (pulse 2) to mea sure sodium channels that are available to open. […] Pulse 1 and 2 are used to investigate drug binding to the open state and inactivated state of the Na channels, respectively. Each concentration of compound is applied for 5 minutes.

[2] = target: T2, Voltage-Gated Sodium channel hNav1.3 (Homo sapiens, UniProt Q9NY46); assay: human sodium ion channel cell based automated patch clamp assay, hNav1.3
T2 construct: Eurofins Discovery (St. Charles, MO, USA)
Procedure: (§1) Therefore, as a part of the more detailed functional characterization using automated patch clamp method, we tested the influence of (R)-32 on sodium currents mediated by several Navx channels comprising 5 different human subunits, namely, Nav1.1, Nav1.2, Nav1.3, Nav1.6, and Nav1.7, which are involved in both seizure and/or pain modulation.[74],[80],[81] As summarized in Tables S4–S8, (R)-32 starting from 10 μM effectively and in concentration-dependent manner decreased sodium currents mediated by all aforementioned sodium channel subunits. Furthermore, (R)-32 appeared to bind exclusively to sodium channels that are in an inactivated state (see pulse 2 in Tables S4–S8), but not to the channels that are in an open state (pulse 1) (for additional details, see Supporting Information).
(§2) Human sodium ion channels cell based automated patch clamp assay
(§3) Human sodium ion channels cell based automated patch clamp assays: sodium channels exist in, a) a resting or closed state at -120 mV, b) a transient open state that inactivates to c) inactivated state at -10 mV. Sodium current inhibition within 1-2 ms of channel opening at 0 mV is open channel inhibition (pulse 1). In order to completely inactivate the sodium channels and facilitate inactivated state-dependent binding of the drug, the channels were kept at […] ( -10 mV) longer (pulsed for 500 ms) and then stepped back to -120 mV for 10 ms to recover from inactivation into resting or closed state (but the channels that had drug bound to them will not recover from inactivation and will not open) before stepping to -10 mV for 50 ms (pulse 2) to mea sure sodium channels that are available to open. The higher inhibition seen at pulse 2 is due to inactivated state -dependent inhibition. Pulse 1 and 2 are used to investigate drug binding to the open state and inactivated state of the Na channels, respectively. Each concentration of compound is applied for 5 minutes. The results obtained for (R)-32 are summerized in Tables S4–S8. […]
(§4) Compound Concentration Measurement % Inhibition
(§5) Data interpretation: Results showing inhibition greater than 50% are considered to represent significant effects of test compound and have been bolded for (R)-32 for better visualization. The studies were carried out in Eurofins Discovery (St. Charles, MO, USA).

[3] = target: T3, Voltage-Gated Sodium channel hNav1.6 (Homo sapiens, UniProt Q9UQD0); assay: human sodium ion channel cell based automated patch clamp assay, hNav1.6
T3 construct: Eurofins Discovery (St. Charles, MO, USA)
Procedure: as §1, §2, §3, §4, §5

[4] = target: T4, Voltage-Gated Sodium channel hNav1.1 (Homo sapiens, UniProt P35498); assay: human sodium ion channel cell based automated patch clamp assay, hNav1.1
T4 construct: Eurofins Discovery (St. Charles, MO, USA)
Procedure: as §1, §2
Human sodium ion channels cell based automated patch clamp assays: sodium channels exist in, a) a resting or closed state at -120 mV, b) a transient open state that inactivates to c) inactivated state at -10 mV. Sodium current inhibition within 1-2 ms of channel opening at 0 mV is open channel inhibition (pulse 1). In order to completely inactivate the sodium channels and facilitate inactivated state-dependent binding of the drug, the channels were kept at […] ( -10 mV) longer (pulsed for 500 ms) and then stepped back to -120 mV for 10 ms to recover from inactivation into resting or closed state (but the channels that had drug bound to them will not recover from inactivation and will not open) before stepping to -10 mV for 50 ms (pulse 2) to mea sure sodium channels that are available to open. The higher inhibition seen at pulse 2 is due to inactivated state -dependent inhibition. Pulse 1 and 2 are used to investigate drug binding to the open state and inactivated state of the Na channels, respectively. Each concentration of compound is applied for 5 minutes. The results obtained for (R)-32 are summerized in Tables S4–S8.
Table S4. Effect of the (R)-32 on subunit Nav1.1.
Voltage-Gated Sodium channel hNav1.1
as §4, §5

[5] = tested on: 6 Hz (44 mA) seizures, mice; assay: 6 Hz (44 mA) seizure test; type: in vivo; conditions: Mus musculus, ip, pretreatment time 0.5 h
From the text: Both the aforementioned parameters (ED50 and TD50) enabled the calculation of protective indexes (PIs), which reflect the comparative the benefit–risk ratio of these experimental therapeutic agents.
Four mice per group were randomly assigned to each experimental group in the initial screening experiments (each mouse was used just once). Four groups, each with eight animals, received injections of different doses of the investigated substances in order to determine the ED50 or TD50 values. The PIs for the compounds investigated and reference ASMs were calculated by dividing the TD50 value, as determined in the chimney test by the respective ED50 value, as determined in the MES, scPTZ, or 6 Hz (32 mA or 44 mA) tests (PI = TD50/ED50). The PIs are a measure of the potential therapeutic window of the tested agent.
All substances were suspended in Tween 80 (1% aqueous solution) and administered i.p. as a single injection at a volume of 10 mL/kg. On each day of experimentation, fresh solutions were prepared.

[6] = hNav1.7, Pulse 1 (open state), read-out: % Inhibition Mean
[7] = hNav1.7, Pulse 1 (open state), read-out: % Inhibition n1
[8] = hNav1.7, Pulse 1 (open state), read-out: % Inhibition n2
[9] = hNav1.7, Pulse 2 (inactivated state), read-out: % Inhibition Mean
[10] = hNav1.7, Pulse 2 (inactivated state), read-out: % Inhibition n1
[11] = hNav1.7, Pulse 2 (inactivated state), read-out: % Inhibition n2
[12] = hNav1.3, Pulse 1 (open state), read-out: % Inhibition Mean
[13] = hNav1.3, Pulse 1 (open state), read-out: % Inhibition n1
[14] = hNav1.3, Pulse 1 (open state), read-out: % Inhibition n2
[15] = hNav1.3, Pulse 2 (inactivated state), read-out: % Inhibition Mean
[16] = hNav1.3, Pulse 2 (inactivated state), read-out: % Inhibition n1
[17] = hNav1.3, Pulse 2 (inactivated state), read-out: % Inhibition n2
[18] = hNav1.6, Pulse 1 (open state), read-out: % Inhibition Mean
[19] = hNav1.6, Pulse 1 (open state), read-out: % Inhibition n1
[20] = hNav1.6, Pulse 1 (open state), read-out: % Inhibition n2
[21] = hNav1.6, Pulse 2 (inactivated state), read-out: % Inhibition Mean
[22] = hNav1.6, Pulse 2 (inactivated state), read-out: % Inhibition n1
[23] = hNav1.6, Pulse 2 (inactivated state), read-out: % Inhibition n2
[24] = hNav1.1, Pulse 1 (open state), read-out: % Inhibition Mean
[25] = hNav1.1, Pulse 1 (open state), read-out: % Inhibition n1
[26] = hNav1.1, Pulse 1 (open state), read-out: % Inhibition n2
[27] = hNav1.1, Pulse 2 (inactivated state), read-out: % Inhibition Mean
[28] = hNav1.1, Pulse 2 (inactivated state), read-out: % Inhibition n1
[29] = hNav1.1, Pulse 2 (inactivated state), read-out: % Inhibition n2

T1 sequence (Q15858 whole entry): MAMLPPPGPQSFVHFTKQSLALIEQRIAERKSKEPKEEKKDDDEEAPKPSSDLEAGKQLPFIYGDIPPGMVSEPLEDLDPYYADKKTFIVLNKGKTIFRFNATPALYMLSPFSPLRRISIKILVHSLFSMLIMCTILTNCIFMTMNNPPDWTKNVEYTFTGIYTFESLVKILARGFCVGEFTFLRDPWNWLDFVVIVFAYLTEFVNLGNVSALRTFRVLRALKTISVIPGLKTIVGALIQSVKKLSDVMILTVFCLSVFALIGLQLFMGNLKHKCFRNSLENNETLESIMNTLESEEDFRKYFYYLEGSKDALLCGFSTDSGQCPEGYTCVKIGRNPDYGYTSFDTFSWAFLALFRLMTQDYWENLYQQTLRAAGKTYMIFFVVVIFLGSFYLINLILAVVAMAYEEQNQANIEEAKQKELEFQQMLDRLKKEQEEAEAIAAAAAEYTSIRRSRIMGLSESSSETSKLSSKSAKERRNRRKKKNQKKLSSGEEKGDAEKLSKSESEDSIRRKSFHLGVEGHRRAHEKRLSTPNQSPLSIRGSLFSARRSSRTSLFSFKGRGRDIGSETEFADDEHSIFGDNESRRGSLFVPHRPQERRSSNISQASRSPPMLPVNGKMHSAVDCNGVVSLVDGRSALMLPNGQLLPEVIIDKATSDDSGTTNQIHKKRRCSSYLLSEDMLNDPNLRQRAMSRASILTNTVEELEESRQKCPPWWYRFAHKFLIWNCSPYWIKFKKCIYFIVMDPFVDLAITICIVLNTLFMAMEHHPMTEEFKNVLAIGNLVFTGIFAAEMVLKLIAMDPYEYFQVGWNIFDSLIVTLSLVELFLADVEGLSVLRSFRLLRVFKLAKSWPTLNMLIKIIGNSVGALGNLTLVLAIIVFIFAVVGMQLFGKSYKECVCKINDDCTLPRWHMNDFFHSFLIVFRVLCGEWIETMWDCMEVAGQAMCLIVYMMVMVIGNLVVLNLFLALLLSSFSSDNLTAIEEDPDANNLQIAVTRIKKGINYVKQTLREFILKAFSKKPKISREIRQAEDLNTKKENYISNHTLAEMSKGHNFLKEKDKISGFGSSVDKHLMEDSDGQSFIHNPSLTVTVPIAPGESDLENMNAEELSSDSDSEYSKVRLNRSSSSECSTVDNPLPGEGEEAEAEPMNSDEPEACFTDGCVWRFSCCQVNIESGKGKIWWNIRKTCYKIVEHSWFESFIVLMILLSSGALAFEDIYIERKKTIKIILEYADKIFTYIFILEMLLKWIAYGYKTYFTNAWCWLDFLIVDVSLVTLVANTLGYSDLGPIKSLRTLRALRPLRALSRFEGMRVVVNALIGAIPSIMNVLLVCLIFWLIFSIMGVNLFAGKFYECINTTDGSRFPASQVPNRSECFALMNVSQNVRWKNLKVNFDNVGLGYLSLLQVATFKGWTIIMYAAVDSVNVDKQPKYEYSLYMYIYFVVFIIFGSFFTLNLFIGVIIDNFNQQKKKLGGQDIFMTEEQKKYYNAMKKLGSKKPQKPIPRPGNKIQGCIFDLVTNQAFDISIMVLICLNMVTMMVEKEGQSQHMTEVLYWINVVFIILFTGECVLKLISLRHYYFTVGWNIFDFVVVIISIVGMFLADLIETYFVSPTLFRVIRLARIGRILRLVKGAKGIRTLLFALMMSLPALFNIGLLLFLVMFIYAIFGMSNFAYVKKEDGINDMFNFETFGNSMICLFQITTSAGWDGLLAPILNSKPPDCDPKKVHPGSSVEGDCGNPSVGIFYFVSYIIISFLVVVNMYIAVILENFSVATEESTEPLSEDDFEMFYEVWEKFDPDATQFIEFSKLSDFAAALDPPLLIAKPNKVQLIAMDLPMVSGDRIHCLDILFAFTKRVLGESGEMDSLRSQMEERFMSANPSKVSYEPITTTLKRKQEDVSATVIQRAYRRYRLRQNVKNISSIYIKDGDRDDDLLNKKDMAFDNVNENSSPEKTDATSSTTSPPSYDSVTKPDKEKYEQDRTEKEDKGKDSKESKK
T3 sequence (Q9UQD0 whole entry): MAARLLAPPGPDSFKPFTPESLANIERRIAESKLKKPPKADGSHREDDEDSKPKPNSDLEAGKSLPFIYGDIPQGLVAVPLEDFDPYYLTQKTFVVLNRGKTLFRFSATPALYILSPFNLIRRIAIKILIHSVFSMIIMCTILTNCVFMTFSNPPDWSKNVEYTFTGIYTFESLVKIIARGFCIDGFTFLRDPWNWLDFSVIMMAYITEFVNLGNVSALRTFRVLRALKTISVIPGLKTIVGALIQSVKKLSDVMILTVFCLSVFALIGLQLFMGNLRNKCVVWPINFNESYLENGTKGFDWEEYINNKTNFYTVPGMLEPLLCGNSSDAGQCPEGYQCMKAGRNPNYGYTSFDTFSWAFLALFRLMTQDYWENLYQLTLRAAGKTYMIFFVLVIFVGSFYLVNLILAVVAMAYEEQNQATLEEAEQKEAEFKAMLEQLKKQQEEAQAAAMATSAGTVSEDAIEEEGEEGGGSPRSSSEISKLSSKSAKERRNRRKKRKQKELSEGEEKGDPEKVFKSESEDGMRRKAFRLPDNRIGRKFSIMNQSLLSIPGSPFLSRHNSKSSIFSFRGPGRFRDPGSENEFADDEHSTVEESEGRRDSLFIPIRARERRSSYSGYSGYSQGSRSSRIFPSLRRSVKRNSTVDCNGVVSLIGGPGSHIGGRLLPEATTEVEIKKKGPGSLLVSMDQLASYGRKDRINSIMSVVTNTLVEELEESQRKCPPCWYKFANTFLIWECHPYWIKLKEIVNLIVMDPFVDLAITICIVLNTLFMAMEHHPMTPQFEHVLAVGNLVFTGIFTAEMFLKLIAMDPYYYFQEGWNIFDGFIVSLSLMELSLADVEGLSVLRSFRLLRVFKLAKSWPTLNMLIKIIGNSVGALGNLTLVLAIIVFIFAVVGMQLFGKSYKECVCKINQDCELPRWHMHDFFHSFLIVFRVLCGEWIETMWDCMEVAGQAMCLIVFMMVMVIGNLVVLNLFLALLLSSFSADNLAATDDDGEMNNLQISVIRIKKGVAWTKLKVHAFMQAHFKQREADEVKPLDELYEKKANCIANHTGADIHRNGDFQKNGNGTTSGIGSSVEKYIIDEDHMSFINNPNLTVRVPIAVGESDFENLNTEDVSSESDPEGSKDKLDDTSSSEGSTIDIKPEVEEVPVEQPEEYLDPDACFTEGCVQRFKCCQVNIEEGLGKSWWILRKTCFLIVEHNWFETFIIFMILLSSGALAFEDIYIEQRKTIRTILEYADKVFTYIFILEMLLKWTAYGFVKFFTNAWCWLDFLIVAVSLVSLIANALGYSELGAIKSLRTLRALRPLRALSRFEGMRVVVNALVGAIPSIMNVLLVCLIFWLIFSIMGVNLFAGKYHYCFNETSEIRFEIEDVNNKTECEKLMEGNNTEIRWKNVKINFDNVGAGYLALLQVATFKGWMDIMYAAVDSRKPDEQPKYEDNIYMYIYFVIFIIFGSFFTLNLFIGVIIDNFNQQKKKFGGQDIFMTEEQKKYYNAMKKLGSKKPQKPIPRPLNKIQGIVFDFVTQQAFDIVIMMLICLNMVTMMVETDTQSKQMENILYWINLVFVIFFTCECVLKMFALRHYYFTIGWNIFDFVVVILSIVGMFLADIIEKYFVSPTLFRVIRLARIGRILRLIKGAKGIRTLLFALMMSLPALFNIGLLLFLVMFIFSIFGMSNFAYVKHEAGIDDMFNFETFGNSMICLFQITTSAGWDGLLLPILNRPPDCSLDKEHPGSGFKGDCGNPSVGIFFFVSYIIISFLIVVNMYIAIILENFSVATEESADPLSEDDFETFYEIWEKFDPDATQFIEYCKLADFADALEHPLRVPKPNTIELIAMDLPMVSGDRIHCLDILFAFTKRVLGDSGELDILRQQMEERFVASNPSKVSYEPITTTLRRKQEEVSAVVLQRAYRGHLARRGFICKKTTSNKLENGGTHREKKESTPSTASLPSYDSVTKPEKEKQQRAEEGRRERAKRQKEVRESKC

## CC(=O)N[C@@H](C(=O)N1CCN(c2cccc(OC(F)(F)F)c2)CC1)c1ccccc1 [(R)-32, (R)-N-(2-Oxo-1-phenyl-2-(4-(3-(trifluoromethoxy)phenyl)piperazin-1-yl)ethyl)acetamide]
[1]; [6]
  inhibition at 1 µM: -5.74%
  inhibition at 10 µM: 6.15%
  inhibition at 100 µM: 22.9%
[1]; [7]
  inhibition at 1 µM: -4.13%
  inhibition at 10 µM: -0.03%
  inhibition at 100 µM: 19.2%
[1]; [8]
  inhibition at 1 µM: -7.35%
  inhibition at 10 µM: 12.3%
  inhibition at 100 µM: 26.5%
[1]; [9]
  inhibition at 1 µM: -3.08%
  inhibition at 10 µM: 37.8%
  inhibition at 100 µM: 98.4%
[1]; [10]
  inhibition at 1 µM: -3.09%
  inhibition at 10 µM: 35.3%
  inhibition at 100 µM: 98.7%
[1]; [11]
  inhibition at 1 µM: -3.07%
  inhibition at 10 µM: 40.4%
  inhibition at 100 µM: 98%
[2]; [12]
  inhibition at 1 µM: -3.38%
  inhibition at 10 µM: -3.18%
  inhibition at 100 µM: 6.75%
[2]; [13]
  inhibition at 1 µM: -7.33%
  inhibition at 10 µM: -8.46%
  inhibition at 100 µM: 5.68%
[2]; [14]
  inhibition at 1 µM: 0.56%
  inhibition at 10 µM: 2.11%
  inhibition at 100 µM: 7.82%
[2]; [15]
  inhibition at 1 µM: -2.78%
  inhibition at 10 µM: 39.5%
  inhibition at 100 µM: 99.1%
[2]; [16]
  inhibition at 1 µM: -5.59%
  inhibition at 10 µM: 42.1%
  inhibition at 100 µM: 99.6%
[2]; [17]
  inhibition at 1 µM: 0.03%
  inhibition at 10 µM: 37%
  inhibition at 100 µM: 98.6%
[3]; [18]
  inhibition at 1 µM: -5.14%
  inhibition at 10 µM: -10.8%
  inhibition at 100 µM: -0.11%
[3]; [19]
  inhibition at 1 µM: -8.4%
  inhibition at 10 µM: -14.4%
  inhibition at 100 µM: -1.89%
[3]; [20]
  inhibition at 1 µM: -1.89%
  inhibition at 10 µM: -7.25%
  inhibition at 100 µM: 1.68%
[3]; [21]
  inhibition at 1 µM: -4.59%
  inhibition at 10 µM: 39.9%
  inhibition at 100 µM: 108%
[3]; [22]
  inhibition at 1 µM: -10.1%
  inhibition at 10 µM: 53%
  inhibition at 100 µM: 121%
[3]; [23]
  inhibition at 1 µM: 0.93%
  inhibition at 10 µM: 26.9%
  inhibition at 100 µM: 95.2%
[4]; [24]
  inhibition at 1 µM: 1.61%
  inhibition at 10 µM: 1.2%
  inhibition at 100 µM: 31%
[4]; [25]
  inhibition at 1 µM: 2.91%
  inhibition at 10 µM: -0.28%
  inhibition at 100 µM: 24%
[4]; [26]
  inhibition at 1 µM: 0.31%
  inhibition at 10 µM: 2.68%
  inhibition at 100 µM: 38%
[4]; [27]
  inhibition at 1 µM: 1.92%
  inhibition at 10 µM: 41.9%
  inhibition at 100 µM: 97.6%
[4]; [28]
  inhibition at 1 µM: 1.74%
  inhibition at 10 µM: 45.3%
  inhibition at 100 µM: 97.9%
[4]; [29]
  inhibition at 1 µM: 2.11%
  inhibition at 10 µM: 38.6%
  inhibition at 100 µM: 97.4%
[5]
  ED50: 26.5 mg/kg
